Reference: US8865448B2, “Aspergillus containing beta-glucosidase, beta-glucosidases and nucleic acids encoding the same” (Cleanvantage LLC, priority 2010, dated 2014)

Tests used:
[1] = test system: Novozym 188 beta-glucosidase (Aspergillus niger), commercial preparation; assay: Michaelis-Menten kinetics with cellobiose, Novozym 188; format: biochemical; details: cellobiose as substrate, 50° C.
Protocol: (§1) In this work specific activity (U/mg) is defined as units per amount of total protein. […] The assay using 5 mM pNPG in NaCltrate buffer pH 4.8 was performed as previously described; enzyme samples were assayed at different concentrations in triple determination to ensure substrate saturation in the assay. […] The glucose concentration was measured at Dionex ICS3000 using gradient elution: 0-20% eluent B (0.5M NaAcetate in 100 mM NaOH) in 13 min followed by 2 min washing with 50% eluent B and 5 min re-equilibrating with 100% eluent A (100 mM NaOH). Samples were assayed at different concentrations in triple determination to ensure substrate saturation in the assay.
(§2) Triple determinations were performed. A substrate saturation curve was prepared by plotting substrate concentration [S] vs reaction rate, v. The Michealis Menten constants Km and Vmax were determined from Hanes-Wolf plots where substrate concentration [S] is plotted against substrate concentration over reaction rate [S]/v, and the linear relationship of the data gives a slope of 1/Vmax, a y-intercept of Km/Vmax, and an x-intercept of −Km.
(§3) Enzyme kinetics are preferably carried out on pure enzyme preparations, but are in this study used for the comparison of the beta-glucosidases of the crude enzyme extract of strain AP/Aspergillus saccharolyticus and the commercial enzyme preparation Novozym 188 and Cellic CTec. […]

[2] = test system: A. niger NIAB280 beta-glucosidase; details: hydrolysis of cellobiose, 50° C., pH 5.0; cited from earlier work
[3] = target: T1, Aspergillus saccharolyticus CBS 127449 beta-glucosidase BGL1, his-tagged, expressed in T. reesei, SEQ ID NO: 3 (without signal peptide SEQ ID NO: 4) (Aspergillus saccharolyticus, UniProt G0X2F9); assay: Michaelis-Menten kinetics with cellobiose, purified BGL1; format: biochemical; details: cellobiose as substrate, 50° C., pH 4.8, Hanes plot
T1 construct: mature form lacks signal peptide 1-19
T1 sequence (G0X2F9 20-860): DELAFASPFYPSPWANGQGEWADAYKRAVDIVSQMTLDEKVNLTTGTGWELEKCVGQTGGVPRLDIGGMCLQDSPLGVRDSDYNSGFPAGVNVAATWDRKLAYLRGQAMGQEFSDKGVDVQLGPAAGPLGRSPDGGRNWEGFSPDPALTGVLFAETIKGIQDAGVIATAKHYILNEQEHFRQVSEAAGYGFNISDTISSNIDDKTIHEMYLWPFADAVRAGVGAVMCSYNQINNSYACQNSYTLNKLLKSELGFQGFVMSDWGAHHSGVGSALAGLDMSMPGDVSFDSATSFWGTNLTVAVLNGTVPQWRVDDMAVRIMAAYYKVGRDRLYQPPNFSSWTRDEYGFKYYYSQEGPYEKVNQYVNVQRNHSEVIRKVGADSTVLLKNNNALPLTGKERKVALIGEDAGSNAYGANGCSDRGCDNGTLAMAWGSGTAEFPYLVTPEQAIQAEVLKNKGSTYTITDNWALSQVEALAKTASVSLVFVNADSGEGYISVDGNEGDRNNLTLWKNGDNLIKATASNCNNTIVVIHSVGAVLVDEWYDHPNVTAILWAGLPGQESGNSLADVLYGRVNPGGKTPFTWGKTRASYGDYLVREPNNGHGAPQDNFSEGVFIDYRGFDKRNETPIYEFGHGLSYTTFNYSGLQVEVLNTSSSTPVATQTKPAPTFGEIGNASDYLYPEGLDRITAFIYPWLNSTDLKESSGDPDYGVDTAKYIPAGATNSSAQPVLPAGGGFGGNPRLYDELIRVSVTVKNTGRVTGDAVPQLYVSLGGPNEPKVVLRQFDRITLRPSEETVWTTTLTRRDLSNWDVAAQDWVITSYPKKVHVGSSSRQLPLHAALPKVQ
Protocol: In this work specific activity (U/mg) is defined as units per amount of total protein. […] The assay using 5 mM pNPG in NaCltrate buffer pH 4.8 was performed as previously described; enzyme samples were assayed at different concentrations in triple determination to ensure substrate saturation in the assay. […] Samples were assayed at different concentrations in triple determination to ensure substrate saturation in the assay.

[4] = test system: Aspergillus saccharolyticus (strain AP, CBS 127449) beta-glucosidases, crude enzyme extract; assay: Michaelis-Menten kinetics with cellobiose, crude solid state fermentation extract of strain AP; format: biochemical; details: cellobiose as substrate, 50° C.
Protocol: The fungal strain AP/Aspergillus saccharolyticus was grown on potato dextrose agar (Sigma) for sporulation. Spores were harvested after 7 days of growth by adding sterile water to the plate and scrape on the surface of the culture. The heavy spore suspension was filtered through Myra cloth. Two ml of the spore solution was inoculated into 200 ml seed medium (2.0 g/l wheat bran, 5 g/l corn steep powder, 0.25 g/l yeast extract, 0.75 g/l peptone, 1.4 g/l (NH4)2SO4, 2.0 g/l KH2PO4, 0.4 g/l CaCl2 2H2O, 0.3 g/l MgSO4H2O, 5.0 mg/l FeSO4, 1.6 mg/l MnSO4 7H2O, 1.4 mg/l ZnSO4 7H2O, 2.0 CoCl2 6H2O) in an 500 ml Erlenmeyer flask, and incubated at 30° C. for 2 days, shaking at 160 rpm. […] The samples were incubated at 30° C. without shaking. After 7 days incubation, liquid was extracted from the medium by pressing the medium by hand using gloves. The extract was centrifuged at 10000 g, and the supernatant filtered through Whatman filter paper. In this work specific activity (U/mg) is defined as units per amount of total protein. […] Samples were assayed at different concentrations in triple determination to ensure substrate saturation in the assay. […] Triple determinations were performed. A substrate saturation curve was prepared by plotting substrate concentration [S] vs reaction rate, v. […]

[5] = test system: A. niger CCRC31494 beta-glucosidase; details: hydrolysis of cellobiose, 40° C., pH 4.0; cited from earlier work
[6] = test system: A. phoenicis QM329 beta-glucosidase; details: cited from earlier work
[7] = test system: A. niger beta-glucosidases; details: cellobiose; general literature search; cited from earlier work
[8] = test system: A. carbonarius KLU-93 beta-glucosidase; details: cited from earlier work
[9] = test system: A. japonicus beta-glucosidase; details: cellobiose; cited from earlier work
[10] = test system: A. niger BKMF-1305 beta-glucosidase; details: cited from earlier work
[11] = test system: Cellic CTec beta-glucosidases, commercial preparation; assay: Michaelis-Menten kinetics with cellobiose, Cellic CTec; format: biochemical; details: cellobiose as substrate, 50° C.
Protocol: as §1, §2, §3

[12] = cellobiose, jointly for A. phoenicis, A. niger, A. carbonarius (Jager et al., 2001)
[13] = hydrolysis of cellobiose, 50° C., pH 4.0

Question: Which Km ([1]; pH 4.8, Hanes-Wolf plot) does the source give for `OC[C@H]1O[C@@H](O[C@H]2[C@H](O)[C@@H](O)C(O)O[C@@H]2CO)[C@H](O)[C@@H](O)[C@@H]1O` (some centres unmarked) [cellobiose] here?
Answer: 1060 µM

Question: And the Vmax ([1]; pH 4.8, per total protein)?
Answer: 7.5 U/mg

Question: And the Vmax [2]?
Answer: 36.5 U/mg

Question: What about the Vmax [3] of the same compound?
Answer: 45 U/mg

Question: What about the Km ([4]; pH 4.8, Hanes-Wolf plot) of the same compound?
Answer: 1090 µM

Question: What about the Vmax ([4]; pH 4.8, per total protein) of the same compound?
Answer: 11.3 U/mg

Question: And the Vmax [5]?
Answer: 5.27 U/mg

Question: What about the Km [6, 12] of the same compound?
Answer: 2000 to 3000 µM

Question: What about the Vmax [6, 13] of the same compound?
Answer: 27.3 U/mg

Question: What about the Km [7] of the same compound?
Answer: 1500 to 5600 µM

Question: And the Km [8, 12]?
Answer: 2000 to 3000 µM

Question: And the Vmax [8, 13]?
Answer: 15.4 U/mg

Question: What about the Km [9] of the same compound?
Answer: 1000 µM

Question: What about the Km [10, 12] of the same compound?
Answer: 2000 to 3000 µM

Question: And the Vmax [10, 13]?
Answer: 38.8 U/mg

Question: What about the Km ([11]; pH 4.8, Hanes-Wolf plot) of the same compound?
Answer: 1690 µM

Question: And the Vmax ([11]; pH 4.8, per total protein)?
Answer: 22.9 U/mg
